These results are taken from ChEMBL document CHEMBL1150977, “A quantitative analysis of kinase inhibitor selectivity” (Nat Biotechnol, 2008).

The structures appear in SMILES notation.

One test deals with T1, Myosin-IIIb (Homo sapiens, UniProt Q8WXR4).
T1 sequence (Q8WXR4 whole entry): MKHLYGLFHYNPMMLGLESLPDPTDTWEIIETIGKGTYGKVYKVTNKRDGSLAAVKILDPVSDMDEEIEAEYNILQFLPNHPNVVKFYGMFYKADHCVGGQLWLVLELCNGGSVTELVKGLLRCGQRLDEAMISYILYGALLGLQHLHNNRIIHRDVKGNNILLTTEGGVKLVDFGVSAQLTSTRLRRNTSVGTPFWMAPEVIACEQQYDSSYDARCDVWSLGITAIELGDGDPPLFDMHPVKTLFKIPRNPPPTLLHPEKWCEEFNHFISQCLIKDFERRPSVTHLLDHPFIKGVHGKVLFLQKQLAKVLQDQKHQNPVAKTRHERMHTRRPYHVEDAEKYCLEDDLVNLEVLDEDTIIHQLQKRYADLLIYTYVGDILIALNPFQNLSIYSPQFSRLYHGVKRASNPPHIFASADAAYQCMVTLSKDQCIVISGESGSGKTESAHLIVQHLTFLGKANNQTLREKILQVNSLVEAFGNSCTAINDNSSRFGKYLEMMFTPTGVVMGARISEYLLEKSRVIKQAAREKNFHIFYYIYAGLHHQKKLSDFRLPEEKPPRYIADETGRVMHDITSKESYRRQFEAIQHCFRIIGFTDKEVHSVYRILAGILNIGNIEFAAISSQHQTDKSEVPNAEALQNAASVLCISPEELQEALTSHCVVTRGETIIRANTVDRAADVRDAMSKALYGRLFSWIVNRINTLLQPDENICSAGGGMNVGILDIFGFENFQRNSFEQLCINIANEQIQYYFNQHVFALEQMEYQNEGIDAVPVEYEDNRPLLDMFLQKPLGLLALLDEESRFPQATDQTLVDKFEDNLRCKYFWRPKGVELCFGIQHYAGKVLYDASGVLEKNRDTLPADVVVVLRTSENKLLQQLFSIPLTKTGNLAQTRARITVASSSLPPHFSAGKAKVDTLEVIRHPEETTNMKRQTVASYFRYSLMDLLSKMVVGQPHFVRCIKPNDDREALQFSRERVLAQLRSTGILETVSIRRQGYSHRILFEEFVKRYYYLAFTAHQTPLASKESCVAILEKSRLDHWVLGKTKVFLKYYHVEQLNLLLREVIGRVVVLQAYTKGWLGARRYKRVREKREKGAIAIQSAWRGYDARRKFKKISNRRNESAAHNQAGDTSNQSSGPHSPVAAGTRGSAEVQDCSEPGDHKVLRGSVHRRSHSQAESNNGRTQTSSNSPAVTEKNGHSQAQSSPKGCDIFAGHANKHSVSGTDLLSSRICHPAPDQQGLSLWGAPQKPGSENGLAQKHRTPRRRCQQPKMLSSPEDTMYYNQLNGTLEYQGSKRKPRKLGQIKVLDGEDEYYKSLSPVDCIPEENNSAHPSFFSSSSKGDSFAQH

Test [1] concerns the target T2, Tyrosine-protein kinase receptor TYRO3 (Homo sapiens, UniProt Q06418).
T2 sequence (Q06418 whole entry): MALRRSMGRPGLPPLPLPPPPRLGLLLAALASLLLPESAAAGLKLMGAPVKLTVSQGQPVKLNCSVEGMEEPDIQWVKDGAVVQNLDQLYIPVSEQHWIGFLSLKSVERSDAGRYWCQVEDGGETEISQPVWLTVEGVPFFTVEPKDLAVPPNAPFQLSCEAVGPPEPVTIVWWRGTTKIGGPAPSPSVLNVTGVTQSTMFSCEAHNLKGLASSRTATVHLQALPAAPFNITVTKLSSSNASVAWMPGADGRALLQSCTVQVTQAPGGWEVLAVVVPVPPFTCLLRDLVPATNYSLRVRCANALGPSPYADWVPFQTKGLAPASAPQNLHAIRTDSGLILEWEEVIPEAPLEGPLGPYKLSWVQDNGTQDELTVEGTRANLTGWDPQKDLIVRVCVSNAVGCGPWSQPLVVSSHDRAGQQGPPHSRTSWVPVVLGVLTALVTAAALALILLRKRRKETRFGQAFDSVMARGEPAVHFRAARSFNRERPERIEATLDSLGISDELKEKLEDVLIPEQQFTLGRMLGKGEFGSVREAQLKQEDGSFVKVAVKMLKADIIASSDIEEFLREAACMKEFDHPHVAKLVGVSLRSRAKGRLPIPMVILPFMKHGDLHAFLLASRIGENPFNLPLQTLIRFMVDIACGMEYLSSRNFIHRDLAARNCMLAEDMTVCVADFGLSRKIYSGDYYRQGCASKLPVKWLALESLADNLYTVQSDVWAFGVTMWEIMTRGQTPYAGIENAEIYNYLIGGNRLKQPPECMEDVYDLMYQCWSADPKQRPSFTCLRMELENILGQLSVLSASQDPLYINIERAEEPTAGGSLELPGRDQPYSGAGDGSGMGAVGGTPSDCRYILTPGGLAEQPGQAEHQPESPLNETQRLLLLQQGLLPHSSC

Test [2] has as its target Interferon-induced, double-stranded RNA-activated protein kinase (Homo sapiens, UniProt P19525).

Chain of Interferon-induced, double-stranded RNA-activated protein kinase (P19525 whole entry): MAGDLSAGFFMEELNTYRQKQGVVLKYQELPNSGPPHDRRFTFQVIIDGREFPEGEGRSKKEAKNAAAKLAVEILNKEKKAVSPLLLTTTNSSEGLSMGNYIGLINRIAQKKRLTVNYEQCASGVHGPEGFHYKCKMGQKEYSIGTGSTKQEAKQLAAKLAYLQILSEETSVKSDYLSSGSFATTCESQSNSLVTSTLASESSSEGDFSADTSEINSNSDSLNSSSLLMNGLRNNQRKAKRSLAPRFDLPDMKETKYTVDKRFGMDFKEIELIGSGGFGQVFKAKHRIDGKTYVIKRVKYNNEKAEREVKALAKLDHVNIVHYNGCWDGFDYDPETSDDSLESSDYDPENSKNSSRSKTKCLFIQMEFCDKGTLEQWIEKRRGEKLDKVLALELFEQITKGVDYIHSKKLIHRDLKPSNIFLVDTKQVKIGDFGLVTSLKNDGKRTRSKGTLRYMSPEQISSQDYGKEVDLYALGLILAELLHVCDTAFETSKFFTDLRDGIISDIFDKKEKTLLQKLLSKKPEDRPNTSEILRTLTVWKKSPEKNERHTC

By Kd is commonly meant the constant that tells how readily two partners part at equilibrium. In the case of `COCC(=O)NC/C=C/c1ccc2ncnc(Nc3ccc(Oc4ccc(C)nc4)c(C)c3)c2c1` [CP-724714], the equilibrium dissociation constant (Kd) (on Myosin-IIIb; in test [1]; in test [2]) was > 10 µM each time.
For `Nc1nc(Nc2ccc(S(N)(=O)=O)cc2)nn1C(=O)c1c(F)cccc1F` [JNJ-7706621], the Kd (at Myosin-IIIb; in test [1]) was > 10 µM throughout.
Take `CCOc1cc2ncc(C#N)c(Nc3ccc(F)c(Cl)c3)c2cc1NC(=O)/C=C/CN(C)C` [PELITINIB]: the Kd was > 10 µM on Myosin-IIIb and 1.9 µM in test [2].
For `Oc1ccc(-c2nc(-c3ccncc3)c(-c3ccc(F)cc3)[nH]2)cc1` [SB-202190], the Kd (at Myosin-IIIb; in test [1]; in test [2]) was > 10 µM in each case.
Take `NC(=O)c1ccc(-c2nc(-c3ccc4c(c3)OCO4)c(-c3ccccn3)[nH]2)cc1` [SB-431542]: the Kd (at Myosin-IIIb; in test [1]; in test [2]) was > 10 µM in each case.
